# Where two headings read alike, the source gives them in different places.
# Key:
# SARS-CoV-2 3CL protease = SARS-CoV-2 3CL protease (Severe acute respiratory syndrome coronavirus 2, UniProt P0DTD1); experiment: Inhibitory activity test against SARS-CoV-2 3CL proteases; format: biochemical
# SARS-CoV-2 = experiment: Inhibitory activity of cytopathic effect (CPE) in HEK293T/ACE2-TMPRSS2 cells; format: cell-based
# [1] = read-out: IC50 (50% SARS-CoV-2 3CL protease inhibitory concentration)
# [2] = Severe acute respiratory syndrome coronavirus 2, HEK-293T, 72 h, 50% SARS-CoV-2 infected cell death inhibitory concentration, HEK293T/ACE2-TMPRSS2 cells, CellTiter-Glo 2.0 after 3 days culture, read-out: EC50
# [3] = Severe acute respiratory syndrome coronavirus 2, HEK-293T, 72 h, HEK293T/ACE2-TMPRSS2 cells, cultured 3 days, CellTiter-Glo 2.0 luminescence, read-out: EC50 (50% SARS-CoV-2 infected cell death inhibitory concentration)
Compound,IC50 (SARS-CoV-2 3CL protease; [1]) [nM],EC50 (SARS-CoV-2; [3]) [nM],other results
COc1nc(N2CC[C@@H](C#N)C2)cc2c1c(=O)n(-c1cnc3cc(F)ccn13)c(=O)n2-c1ccc(F)c(Cl)c1 [Compound I-0652],1.4,–,EC50 (SARS-CoV-2; [2]): 7.43 nM
COc1nc(-c2cc(C#N)ccc2Cl)cc2c1c(=O)n(-c1cc(C)cnn1)c(=O)n2Cc1cc(F)c(F)c(F)c1 [Compound I-0929],< 100,< 100,–
Cn1cnc(Cn2c(=O)c3c4nccnc4c(N4CCCC4)cc3n(Cc3cc(F)c(F)c(F)c3)c2=O)n1 [Compound I-0932],< 100,< 100,–
COc1nc2c(=O)n(Cc3ncn(C)n3)c(=O)n(Cc3cc(F)c(F)c(Cl)c3)c2cc1-c1nc(C(=O)NC2(C)COC2)ccc1Cl [Compound I-0886],< 100,< 100,–
COc1nc(N2CC[C@@H](C#N)C2)cc2c1c(=O)n(-c1cncc(F)c1)c(=O)n2-c1ccc(F)c(Cl)c1 [Compound I-0938],< 100,< 100,–
Cn1c(-c2cc(C#N)ccc2Cl)cc2c(c1=O)c(=O)n(-c1cnc3ccc(Cl)cn13)c(=O)n2Cc1cc(F)c(F)c(F)c1 [Compound I-0741],4.3,–,EC50 (SARS-CoV-2; [2]): 105 nM
COc1nc(-c2cc(C#N)ccc2Cl)cc2c1c(=O)n(-c1cnc3ccc(F)cn13)c(=O)n2Cc1cc(F)c(F)c(F)c1 [Compound I-0680],< 100,< 100,–
C=Cc1cc2c(c(OC)n1)c(=O)n(-c1cnc3cc(F)ccn13)c(=O)n2-c1ccc(F)c(Cl)c1 [Compound I-0999],< 100,100 to 1000,–
COc1nc(N2CCC(F)(F)C2)cc2c1c(=O)n(-c1cc(C)cnn1)c(=O)n2-c1ccc(F)c(Cl)c1 [Compound I-1003],< 100,< 100,–
COc1nc(N2CC[C@@H](OC)C2)cc2c1c(=O)n(-c1cnc3cc(F)ccn13)c(=O)n2Cc1cc(F)c(F)c(Cl)c1 [Compound I-0735],< 100,< 100,–
COc1nc(N2CCC(O)(CF)C2)cc2c1c(=O)n(-c1cnc3cc(F)ccn13)c(=O)n2-c1ccc(F)c(Cl)c1 (centres unmarked) [Compound I-1037],< 100,< 100,–
Cn1cnc(Cn2c(=O)c3c4nccnc4c(-c4cc5c(cc4Cl)NC(=O)C5)cc3n(Cc3cc(F)c(F)c(Cl)c3)c2=O)n1 [Compound I-0823],0.75,–,EC50 (SARS-CoV-2; [2]): 197 nM
COc1nc2c(=O)n(Cc3ncn(C)n3)c(=O)n(Cc3cc(F)c(F)c(F)c3)c2cc1-c1cc(C#N)ccc1Cl [Compound I-0699],< 100,< 100,–
N#Cc1ccc(Cl)c(-c2cc3c(c4c2C(O)CO4)c(=O)n(-c2cncc(Cl)c2)c(=O)n3Cc2cc(F)c(F)c(F)c2)c1 (centres unmarked) [Compound I-0859],1.9,–,EC50 (SARS-CoV-2; [2]): 18.7 nM
COc1nc(N2CCC(N(C)C)C2)cc2c1c(=O)n(-c1cnc3cc(F)ccn13)c(=O)n2-c1ccc(F)c(Cl)c1 (centres unmarked) [Compound I-1055],< 100,< 100,–
COc1nc(N2CC[C@@H](OC)C2)cc2c1c(=O)n(-c1cnc3cc(F)ccn13)c(=O)n2-c1ccc(F)c(Cl)c1 [Compound I-0740],< 100,< 100,–
COc1nc(N2CC[C@@H](C#N)C2)cc2c1c(=O)n(-c1cncc(C(F)F)c1)c(=O)n2-c1ccc(F)c(Cl)c1 [Compound I-0945],< 100,< 100,–
"[2H]C([2H])([2H])O[C@@H]1CCN(c2cc3c(c(OC)n2)c(=O)n(-c2cncc(Cl)c2C)c(=O)n3-c2ccc(F)c(Cl)c2)C1 (atropisomer, axis not shown) [Compound I-0947]",2.3,–,EC50 (SARS-CoV-2; [2]): 6.34 nM
COc1cc(-c2cc(C#N)ccc2Cl)cc2c1c(=O)n(-c1cnc3ccccn13)c(=O)n2Cc1cc(F)c(F)c(F)c1 [Compound I-0661],< 100,–,"EC50 (SARS-CoV-2; HEK293T/ACE2-TMPRSS2 cells, cultured 3 days, CellTiter-Glo 2.0 luminescence, read-out: EC50 (50% SARS-CoV-2 infected cell death inhibitory concentration)): < 100 nM"
COc1nc(-c2cc(C#N)ccc2Cl)cc2c1c(=O)n(-c1cnc3ccccn13)c(=O)n2Cc1ccc(F)c(C#N)c1 [Compound I-0842],34,–,EC50 (SARS-CoV-2; [2]): 88.2 nM
COc1nc(N2C3CCC(O)C2CC3)cc2c1c(=O)n(Cc1ncn(C)n1)c(=O)n2Cc1cc(F)c(F)c(F)c1 (centres unmarked) [Compound I-0610],–,–,"IC50 (SARS-CoV-2 3CL protease; IC50 (50% SARS-CoV-2 3CL protease inhibitory concentration)): < 100 nM; EC50 (SARS-CoV-2; Severe acute respiratory syndrome coronavirus 2, HEK-293T, 72 h, read-out: EC50 (50% SARS-CoV-2 infected cell death inhibitory concentration)): < 100 nM"
COc1nc2c(=O)n(Cc3ncn(C)n3)c(=O)n(Cc3cc(F)c(F)c(Cl)c3)c2cc1-c1nc(C(F)F)ccc1Cl [Compound I-0879],< 100,< 100,–
COc1nc(N2CC[C@@H](F)C2)cc2c1c(=O)n(-c1cnc3cc(F)ccn13)c(=O)n2Cc1cc(F)c(F)c(F)c1 [Compound I-0673],< 100,< 100,–
COc1nc(N2C[C@@H]3C[C@H]2CO3)cc2c1c(=O)n(-c1cncc(C#N)c1)c(=O)n2-c1ccc(F)c(F)c1 [Compound I-0991],< 100,< 100,–
Cn1cnc(Cn2c(=O)c3c4ncn(C)c4c(N4CC[C@@H](F)C4)cc3n(Cc3cc(F)c(F)c(F)c3)c2=O)n1 (racemic) [Compound I-0554],330,–,EC50 (SARS-CoV-2; [2]): 2750 nM

# Source: US20240400560A1, “BICYCLIC HETEROCYCLIC DERIVATIVE HAVING VIRAL GROWTH INHIBITORY ACTIVITY AND PHARMACEUTICAL COMPOSITION CONTAINING SAME” (Shionogi & Co., Ltd., priority 2021, published 2024)
